# Test results from ChEMBL document CHEMBL3792336, “Synthesis and antitumor activity of ATB-429 derivatives containing a nitric oxide-releasing moiety” (Bioorg Med Chem Lett, 2016).
# pIC50: −log10 of the molar value.
# How the values were obtained:
# MCF7 [1] = experiment: Antiproliferative activity against human MCF7 cells at 30 uM after 72 hrs by MTT assay; type: functional; conditions: MCF7, 72 h
# HT-29 [2] = experiment: Antiproliferative activity against human HT-29 cells after 72 hrs by MTT assay; type: functional, cell-based; conditions: HT-29, 72 h
# [3] = Antiproliferative activity against human PANC1 cells at 30 uM after 72 hrs by MTT assay; type: functional; conditions: PANC-1, 72 h
# [4] = Antiproliferative activity against human HL60 cells at 30 uM after 72 hrs by MTT assay; type: functional; conditions: HL-60, 72 h
# HT-29 [5] = experiment: Antiproliferative activity against human HT-29 cells at 30 uM after 72 hrs by MTT assay; type: functional; conditions: HT-29, 72 h
# [6] = Antiproliferative activity against human DU145 cells at 30 uM after 72 hrs by MTT assay; type: functional; conditions: DU-145, 72 h
# [7] = Antiproliferative activity against human PANC1 cells after 72 hrs by MTT assay; type: functional, cell-based; conditions: PANC-1, 72 h
# A549 [8] = experiment: Antiproliferative activity against human A549 cells at 30 uM after 72 hrs by MTT assay; type: functional; conditions: A549, 72 h
# [9] = Antiproliferative activity against human DU145 cells after 72 hrs by MTT assay; type: functional, cell-based; conditions: DU-145, 72 h
# MCF7 [10] = experiment: Antiproliferative activity against human MCF7 cells after 72 hrs by MTT assay; type: functional, cell-based; conditions: MCF7, 72 h
# A549 [11] = experiment: Antiproliferative activity against human A549 cells after 72 hrs by MTT assay; type: functional, cell-based; conditions: A549, 72 h
# [12] = Antiproliferative activity against human HL60 cells after 72 hrs by MTT assay; type: functional, cell-based; conditions: HL-60, 72 h
SMILES,pIC50 (HT-29 [2]),pIC50 (MCF7 [10]),pIC50 (A549 [11]),inhibition at 30 µM (MCF7 [1]),inhibition at 30 µM [3],inhibition at 30 µM [4],inhibition at 30 µM (HT-29 [5]),inhibition at 30 µM [6],pIC50 [7],inhibition at 30 µM (A549 [8]),pIC50 [9],pIC50 [12]
O=C(Nc1ccc(OC(=O)CCCO[N+](=O)[O-])c(C(=O)Oc2ccc(-c3cc(=S)ss3)cc2)c1)Nc1ccc(F)cc1F,,,,-6.87%,-14.8%,0.43%,-6.41%,-7.47%,,-28%,,
O=C(Nc1cccc(C(F)(F)F)c1)Nc1ccc(OC(=O)CCCO[N+](=O)[O-])c(C(=O)Oc2ccc(-c3cc(=S)ss3)cc2)c1,,,,-6.78%,-5.71%,14.1%,13.2%,-14.2%,,-22.1%,,
COc1ccc(NC(=O)Nc2ccc(OC(=O)CCCO[N+](=O)[O-])c(C(=O)Oc3ccc(-c4cc(=S)ss4)cc3)c2)cc1,,,,16%,2.19%,8.3%,12.1%,-6.39%,,3.19%,,
O=C(Nc1ccc(F)cc1)Nc1ccc(OC(=O)CCCO[N+](=O)[O-])c(C(=O)Oc2ccc(-c3cc(=S)ss3)cc2)c1,,,,19.1%,-12.9%,8.68%,6.92%,15.3%,,-27.2%,,
Nc1ccc(OC(=O)CCCO[N+](=O)[O-])c(C(=O)Oc2ccc(-c3cc(=S)ss3)cc2)c1,,,,-5.55%,-10.5%,8.73%,-13.3%,-7.67%,,-18.4%,,
O=C(Nc1cccc(Cl)c1)Nc1ccc(OC(=O)CCCO[N+](=O)[O-])c(C(=O)Oc2ccc(-c3cc(=S)ss3)cc2)c1,,,,6.1%,-17.3%,10.9%,21.5%,5.49%,,-23.3%,,
Cc1cccc(NC(=O)Nc2ccc(OC(=O)CCCO[N+](=O)[O-])c(C(=O)Oc3ccc(-c4cc(=S)ss4)cc3)c2)c1,,,,13.9%,-14.2%,7.34%,9.56%,-19.3%,,-19.8%,,

# Further lines, with some results ahead:
pIC50 (HT-29 [2]),pIC50 (MCF7 [10]),pIC50 (A549 [11]),SMILES,inhibition at 30 µM (MCF7 [1]),inhibition at 30 µM [3],inhibition at 30 µM [4],inhibition at 30 µM (HT-29 [5]),inhibition at 30 µM [6],pIC50 [7],inhibition at 30 µM (A549 [8]),pIC50 [9],pIC50 [12]
6.59,,,CC(C)(C)OC(=O)Nc1ccc(OCCOc2no[n+]([O-])c2S(=O)(=O)c2ccccc2)c(C(=O)Oc2ccc(-c3cc(=S)ss3)cc2)c1,83.1%,97.1%,84.6%,103%,61.6%,5.84,88.5%,,
6.11,5.57,5.38,Nc1ccc(OCCOc2no[n+]([O-])c2S(=O)(=O)c2ccccc2)c(C(=O)Oc2ccc(-c3cc(=S)ss3)cc2)c1,90.1%,96.6%,92.3%,102%,93.8%,5.73,100%,5.90,5.73
6.03,,,CC(C)(C)OC(=O)Nc1ccc(OCCCOc2no[n+]([O-])c2S(=O)(=O)c2ccccc2)c(C(=O)Oc2ccc(-c3cc(=S)ss3)cc2)c1,25.2%,97.4%,84%,103%,67.9%,5.52,-23.8%,,
5.26,4.92,,Nc1ccc(OCCOCCOc2no[n+]([O-])c2S(=O)(=O)c2ccccc2)c(C(=O)Oc2ccc(-c3cc(=S)ss3)cc2)c1,90%,97.1%,84.4%,101%,63.2%,5.10,62.8%,,
6.25,5.52,5.48,Nc1ccc(OCCCOc2no[n+]([O-])c2S(=O)(=O)c2ccccc2)c(C(=O)Oc2ccc(-c3cc(=S)ss3)cc2)c1,92.1%,97.5%,87.3%,103%,94.8%,6.01,100%,5.65,
6.27,,,CC(C)(C)OC(=O)Nc1ccc(OCCOCCOc2no[n+]([O-])c2S(=O)(=O)c2ccccc2)c(C(=O)Oc2ccc(-c3cc(=S)ss3)cc2)c1,63.1%,97.9%,84.5%,103%,54.7%,5.55,18.7%,,
5.72,5.45,5.58,COc1cc2/c(=N/c3ccc(Br)cc3F)nc[nH]c2cc1OCC1CCN(C)CC1 [VANDETANIB],,,,,,5.39,,5.70,5.83
